According to paper PMC8588467, “Rational Design 2-Hydroxypropylphosphonium Salts as Cancer Cell Mitochondria-Targeted Vectors: Synthesis, Structure, and Biological Properties” (Molecules, 2021):
Read-outs that look alike come from different tables or passages of the source.

Tests used:
[1] = tested on: PC3 (human prostate adenocarcinoma); experiment: MTT cytotoxicity, PC3; conditions: for IC50: mean ± SD, triplicate; for SI PC3: IC50 normal cells (WI38) / IC50 cancer cells, ns = no selectivity
[2] = tested on: T98G glioblastoma cell line; experiment: MTT cytotoxicity, T98G; format: cell-based, human; conditions: for IC50: MTT, mean ± SD, triplicate; for SI T98G: IC50 normal cells (WI38) / IC50 cancer cells, ns = no selectivity
[3] = tested on: HuTu 80 (human duodenal adenocarcinoma); experiment: MTT cytotoxicity, HuTu 80; format: cell-based; conditions: for IC50: mean ± SD, triplicate; for SI HuTu 80: IC50 normal cells (WI38) / IC50 cancer cells, ns = no selectivity
[4] = tested on: WI38 (diploid human embryo lung); experiment: MTT cytotoxicity, normal cells WI38; format: cell-based; conditions: mean ± SD, triplicate, read-out: WI38 IC50 (normal cell line)
[5] = tested on: A549 (human lung carcinoma); experiment: MTT cytotoxicity, A549; format: cell-based; conditions: for IC50: mean ± SD, triplicate; for SI A549: IC50 normal cells (WI38) / IC50 cancer cells, ns = no selectivity
[6] = tested on: MCF-7 (human breast adenocarcinoma); experiment: MTT cytotoxicity, MCF-7; format: cell-based; conditions: for IC50: mean ± SD, triplicate; for SI MCF-7: IC50 normal cells (WI38) / IC50 cancer cells, ns = no selectivity
[7] = tested on: M-HeLa (human cervix epitheloid carcinoma); experiment: MTT cytotoxicity, M-HeLa; format: cell-based; conditions: for IC50: MTT, mean ± SD, triplicate; for SI M-HeLa: IC50 normal cells (WI38) / IC50 cancer cells, ns = no selectivity
[8] = tested on: HuTu-80 cells; experiment: Mitochondrial membrane potential, JC-10 flow cytometry; format: cell-based, human; conditions: for % cells with J-aggregate (red, high membrane potential) / % cells with J-monomer (green, decreased membrane potential): JC-10; for effect on mitochondrial membrane potential: more pronounced with increase of concentration up to IC50
Description: Apoptosis induction by 3a, b, k, j and 4c through the mitochondrial pathway and HuTu-80 cell line was studied by flow cytometry using the fluorescent dye JC-10 from the Mitochondria Membrane Potential Kit. JC-10 accumulated in the mitochondrial matrix and formed aggregates (J-aggregate) with red fluorescence in normal cells with a high mitochondrial membrane potential. The membrane potential decreased in apoptotic cells. JC-10 started to diffuse out from the mitochondria and converts to the monomeric form (J-monomer) and emits green fluorescence. This is recorded with a flow cytometer. […] The process became more pronounced with an increase of 3a, b, 3k, j and 4c concentrations up to IC50 (Figure 5 and Figure 6).
Cells were harvested at 2000 rpm for 5 min and then washed twice with ice-cold PBS, followed by resuspension in JC-10 (10 µg/mL) and incubation at 37 °C for 10 min. After the cells were rinsed three times and suspended in PBS, the JC-10 fluorescence was observed by flow cytometry (Guava easy Cyte, MERCK, NJ, USA).

[9] = tested on: HuTu-80 cells; experiment: Induction of apoptosis, annexin V/propidium iodide flow cytometry; format: cell-based, human; conditions: IC50/2, 48-h incubation
Experimental: Apoptosis is one of the most significant mechanisms used for screening new anti-cancer agents. The apoptosis-inducing effect was carried out on lead compounds 3a, b, k, j and 4c showing high selectivity against HuTu-80 cells. The studies were carried out by flow cytometry at concentrations IC50/2 and IC50 (Figure 4). […] The percentage of apoptotic cells in early and late phases was slightly changed with increase compound concentration up to IC50.
HuTu 80 cells at 1 × 10^6 cells/well in a final volume of 2 mL were seeded into six-well plates. After 48 h of incubation, various concentrations of compounds 3a,b and 3k were added to wells.
The cells were harvested at 2000 rpm for 5 min and, then, washed twice with ice-cold PBS, followed by resuspension in binding buffer. Next, the samples were incubated with 5 μL of annexin V-Alexa Fluor 647 (Sigma–Aldrich, St. Louis, MO, USA) and 5 μL of propidium iodide for 15 min at room temperature in the dark. Finally, the cells were analyzed by flow cytometry (Guava easy Cyte, MERCK, Rahway, NJ, USA) within 1 h. The experiments were repeated three times.

[10] = tested on: HuTu-80 cells; experiment: Intracellular ROS production, CellROX Deep Red flow cytometry; format: cell-based, human; conditions: for CellROX Deep Red fluorescence intensity (ROS production): control 600
Description: Increasing the production of reactive oxygen species (ROS) by compounds characterizes the mitochondrial apoptotic pathway. Mitochondria are a potential source and target of ROS. ROS lead to disruption of mitochondrial functions and, as a consequence, to irreversible cell damage. In this regard, the effect of test compounds in HuTu-80 cells on ROS production, using flow cytometry analysis and CellROX® Deep Red flow cytometry kit was investigated. Data presented in Figure 7 show a significant increase in CellROX® Deep Red fluorescence intensity. This indicates an increase in ROS production in the presence of the tested compounds.
ROS generation was investigated using flow cytometry assay and CellROX® Deep Red flow cytometry kit. For this HuTu 80 cells were harvested at 2000 rpm for 5 min and then washed twice with ice-cold PBS, followed by resuspension in 0.1 mL of medium without FBS, to which was added 0.2 μL of Cell ROX® Deep Red and incubated at 37 °C for 30 min After three times washing the cells and suspending them in PBS, the production of ROS in the cells was immediately monitored using flow cytometer Guava easy Cyte, MERCK, NJ, USA).

[11] = Homo sapiens, read-out: IC50 PC3, MTT

| SMILES | IC50 [1, 11] [µM] | SI PC3 [1] | IC50 ([2]; Homo sapiens, T98G) [µM] | SI T98G [2] | IC50 ([3]; Homo sapiens, HuTu80, MTT) [µM] | SI HuTu 80 [3] | IC50 ([4]; Homo sapiens, WI-38, MTT) [µM] | IC50 ([5]; Homo sapiens, A549, MTT) [µM] | SI A549 [5] | IC50 ([6]; Homo sapiens, MCF7, MTT) [µM] | SI MCF-7 [6] | IC50 ([7]; Homo sapiens, M-HeLa) [µM] | SI M-HeLa [7] | IC50 ([3]; MTT) [µM] | further results |
| --- | --- | --- | --- | --- | --- | --- | --- | --- | --- | --- | --- | --- | --- | --- | --- |
| COCC(O)C[P+](c1ccccc1)(c1ccccc1)c1ccccc1 (stereo not shown) [4a] | 50.3 ± 4 | ns | 55.3 ± 4.4 | ns | 26.7 ± 2.1 | 1.4 | 36.5 ± 2.8 | 36 ± 2.8 | ns | 75.7 ± 5.9 | ns | 57.3 ± 4.7 | ns | – | – |
| CCOCC(O)C[P+](c1ccccc1)(c1ccccc1)c1ccccc1.[I-] (stereo not shown) [4b, (3-Ethoxy-2-hydroxypropyl)triphenylphosphonium iodide] | – | ns | – | ns | – | 7 | – | – | ns | – | ns | – | ns | 3.4 ± 0.3 | IC50 ([1]; read-out: IC50 PC3, MTT): 42.4 ± 3.3 µM; IC50 [2]: 49.7 ± 4 µM; IC50 ([4]; MTT): 22.9 ± 1.9 µM; IC50 ([5]; MTT): 39.1 ± 3.1 µM; IC50 ([6]; MTT): 60.3 ± 4.7 µM; IC50 [7]: 68.4 ± 5.9 µM |
| OC(COCC(F)(F)C(F)F)C[P+](c1ccccc1)(c1ccccc1)c1ccccc1 (stereo not shown) [3h, (2-Hydroxy-3-(2,2,3,3-tetrafluoropropoxy)propyl)triphenylphosphonium trifluoromethanesulfonate] | 48.7 ± 3.7 | ns | 63.4 ± 4.8 | ns | 28.9 ± 2.1 | ns | 43.7 ± 3.5 | 34.3 ± 2.6 | ns | 64.4 ± 5 | ns | 100 ± 8.6 | ns | – | – |
| OC(CI)C[P+](c1ccccc1)(c1ccccc1)c1ccccc1 (stereo not shown) [3d, (2-Hydroxy-3-iodopropyl)triphenylphosphonium trifluoromethanesulfonate] | 39.1 ± 3.1 | ns | 64 ± 4.8 | ns | 9.4 ± 0.7 | 4 | 35.2 ± 2.3 | 74.2 ± 5.6 | ns | 88.6 ± 7.1 | ns | 50 ± 4.3 | ns | – | – |
| CCCCCCCCCCCCCCCCCC(=O)OCC(O)C[P+](c1ccccc1)(c1ccccc1)c1ccccc1 (stereo not shown) [3l, (2-Hydroxy-3-stearoyloxy-propyl)triphenylphosphoniumtrifluoromethanesulfonate] | 53.8 ± 4.4 | ns | 55.9 ± 5 | ns | 45 ± 3.5 | ns | 50 ± 3.9 | 75.1 ± 5.7 | ns | 52.8 ± 4.2 | ns | 59.2 ± 5.1 | ns | – | – |
| CCCCCCCCCCCCCCCC(=O)OCC(O)C[P+](c1ccccc1)(c1ccccc1)c1ccccc1 (stereo not shown) [3k, (2-Hydroxy-3-palmitoyloxy-propyl)triphenylphosphonium trifluoromethanesulfonate] | 25 ± 2 | ns | 55.8 ± 4.7 | ns | 3.5 ± 0.3 | 5 | 16.2 ± 1.3 | 54.7 ± 4.4 | ns | 30.5 ± 2.5 | ns | 40.3 ± 3.5 | ns | – | % cells with J-aggregate (red, high membrane potential) ([8]; IC50, 48 h): 26.2%; % cells with J-monomer (green, decreased membrane potential) ([8]; IC50, 48 h): 73.8%; % cells with J-aggregate (red, high membrane potential) ([8]; IC50/2, 48 h): 35%; % cells with J-monomer (green, decreased membrane potential) ([8]; IC50/2, 48 h): 65%; effect on mitochondrial membrane potential [8]: decrease the mitochondrial membrane potential; apoptosis induction [9]: actively induce apoptosis; CellROX Deep Red fluorescence intensity (ROS production) ([10]; IC50, 48 h): 3800; CellROX Deep Red fluorescence intensity (ROS production) ([10]; IC50/2, 48 h): 2000; ROS generation ([10]; compared to 3a and 3b and control (untreated cells)): most active to generate ROS |
| OC(CF)C[P+](c1ccccc1)(c1ccccc1)c1ccccc1 (stereo not shown) [3c, (3-Fluoro-2-hydroxypropyl)triphenylphosphonium trifluoromethanesulfonate] | 53.5 ± 4.2 | ns | 52.1 ± 4.1 | ns | 19.1 ± 1.6 | 2.5 | 47.3 ± 3.8 | > 100 | ns | 56.5 ± 4.5 | ns | 90.6 ± 8.6 | ns | – | – |
| OC(CCl)C[P+](c1ccccc1)(c1ccccc1)c1ccccc1 (stereo not shown) [3a, (3-Chloro-2-hydroxypropyl)triphenylphosphonium trifluoromethanesulfonate] | 45 ± 3.6 | ns | 64.3 ± 5.3 | ns | 10.1 ± 0.8 | 4 | 37.5 ± 3.1 | 64.4 ± 4.9 | ns | 56.1 ± 4.5 | ns | 66.7 ± 5.5 | ns | – | % cells with J-aggregate (red, high membrane potential) ([8]; IC50, 48 h): 39.4%; % cells with J-monomer (green, decreased membrane potential) ([8]; IC50, 48 h): 60.6%; % cells with J-aggregate (red, high membrane potential) ([8]; IC50/2, 48 h): 40.7%; % cells with J-monomer (green, decreased membrane potential) ([8]; IC50/2, 48 h): 59.2%; effect on mitochondrial membrane potential [8]: decrease the mitochondrial membrane potential; apoptosis induction [9]: actively induce apoptosis; CellROX Deep Red fluorescence intensity (ROS production) ([10]; IC50, 48 h): 1500; CellROX Deep Red fluorescence intensity (ROS production) ([10]; IC50/2, 48 h): 1000 |
| CCOCC(O)C[P+](c1ccccc1)(c1ccccc1)c1ccccc1 (stereo not shown) [3g, (3-Ethoxy-2-hydroxypropyl)triphenylphosphonium trifluoromethanesulfonate] | 48.9 ± 3.9 | ns | 62.9 ± 4.6 | ns | – | 1.6 | 30.1 ± 2.3 | 42.2 ± 3.2 | ns | 66.8 ± 5.3 | ns | 63.7 ± 5.2 | ns | 18.4 ± 1.5 | – |
| C=CCOCC(O)C[P+](c1ccccc1)(c1ccccc1)c1ccccc1 (stereo not shown) [3i, (3-(Allyloxy)-2-hydroxypropyl)triphenylphosphonium trifluoromethanesulfonate] | – | ns | – | ns | – | 5 | – | – | ns | – | ns | – | ns | 7.1 ± 0.06 | IC50 ([1]; read-out: IC50 PC3, MTT): 71.8 ± 6.6 µM; IC50 [2]: 50.4 ± 4 µM; IC50 ([4]; MTT): 34.2 ± 2.7 µM; IC50 ([5]; MTT): 41 ± 3.3 µM; IC50 ([6]; MTT): 70.5 ± 5.6 µM; IC50 [7]: 60.8 ± 5.2 µM |
| COCC(O)C[P+](c1ccccc1)(c1ccccc1)c1ccccc1 (stereo not shown) [3f, (2-Hydroxy-3-methoxypropyl)triphenylphosphonium trifluoromethanesulfonate] | – | ns | – | ns | – | 1.5 | – | – | ns | – | ns | – | ns | 23.6 ± 1.8 | IC50 ([1]; read-out: IC50 PC3, MTT): 55.2 ± 4.5 µM; IC50 [2]: 60.4 ± 4.4 µM; IC50 ([4]; MTT): 35.6 ± 2.6 µM; IC50 ([5]; MTT): 39 ± 3 µM; IC50 ([6]; MTT): 60.7 ± 4.9 µM; IC50 [7]: 56.2 ± 4.7 µM |
